Species: Rattus norvegicus
Assay: Open TG-GATES - Regimen: Single
Assay type: toxicity, organism-based, Sprague-Dawley
Parameters: regimen Single, gender Male, age 6 weeks
Details: in vivo, po, route gavage; for gamma-GTP / ALP / ALT / AST / BUN / CRE / Ca / Cl / DBIL / GLC / IP / K / LDH / Na / PL / RALB / TBIL / TG / TP: tissue Plasma; for APTT / Bas / Eos / Fbg / Hb / Ht / Lym / MCH / MCV / Mono / Neu / PT / Plat / RBC / Ret / WBC: tissue Blood; for KIDNEY_L / KIDNEY_R / KIDNEY_TOTAL: tissue Kidney; for LIVER: tissue Liver

NC(=O)N1c2ccccc2C=Cc2ccccc21 [CARBAMAZEPINE]
gamma-GTP (0 mg/kg, 24 h, dose level Control): 0.8 IU/L | TERMINAL_BW (30 mg/kg, 3 h, dose level Low): 214.2 g | APTT (30 mg/kg, 3 h, dose level Low): 19.1 s | Bas (30 mg/kg, 3 h, dose level Low): 0% | Eos (30 mg/kg, 3 h, dose level Low): 1% | Fbg (30 mg/kg, 3 h, dose level Low): 212.2 mg/dL | Hb (30 mg/kg, 3 h, dose level Low): 13.3 g/dL | Ht (30 mg/kg, 3 h, dose level Low): 39.3% | Lym (30 mg/kg, 3 h, dose level Low): 78.2% | MCH (30 mg/kg, 3 h, dose level Low): 21.1 pg | MCV (30 mg/kg, 3 h, dose level Low): 62.4 fL | Mono (30 mg/kg, 3 h, dose level Low): 2.4% | Neu (30 mg/kg, 3 h, dose level Low): 17.8% | PT (30 mg/kg, 3 h, dose level Low): 12.2 s | Plat (30 mg/kg, 3 h, dose level Low): 121.8 x10_4/uL | RBC (30 mg/kg, 3 h, dose level Low): 631.2 x10_4/ul | Ret (30 mg/kg, 3 h, dose level Low): 6.3% | WBC (30 mg/kg, 3 h, dose level Low): 97.3 x10_2/uL | KIDNEY_L (30 mg/kg, 3 h, dose level Low): 0.9 g | KIDNEY_R (30 mg/kg, 3 h, dose level Low): 0.9 g | KIDNEY_TOTAL (30 mg/kg, 3 h, dose level Low): 1.9 g | LIVER (30 mg/kg, 3 h, dose level Low): 9.8 g | ALP (30 mg/kg, 3 h, dose level Low): 896 IU/L | ALT (30 mg/kg, 3 h, dose level Low): 34.8 IU/L | AST (30 mg/kg, 3 h, dose level Low): 66.6 IU/L | BUN (30 mg/kg, 3 h, dose level Low): 12.6 mg/dL | CRE (30 mg/kg, 3 h, dose level Low): 0.4 mg/dL | Ca (30 mg/kg, 3 h, dose level Low): 10.6 mg/dL | Cl (30 mg/kg, 3 h, dose level Low): 103.6 meq/L | DBIL (30 mg/kg, 3 h, dose level Low): 0.072 mg/dL | GLC (30 mg/kg, 3 h, dose level Low): 187.8 mg/dL | IP (30 mg/kg, 3 h, dose level Low): 10.1 mg/dL | K (30 mg/kg, 3 h, dose level Low): 3.9 meq/L | LDH (30 mg/kg, 3 h, dose level Low): 177 IU/L | Na (30 mg/kg, 3 h, dose level Low): 142.4 meq/L | PL (30 mg/kg, 3 h, dose level Low): 143.8 mg/dL | RALB (30 mg/kg, 3 h, dose level Low): 3.3 g/dL | TBIL (30 mg/kg, 3 h, dose level Low): 0.1 mg/dL | TG (30 mg/kg, 3 h, dose level Low): 51.8 mg/dL | TP (30 mg/kg, 3 h, dose level Low): 5.5 g/dL | gamma-GTP (30 mg/kg, 3 h, dose level Low): 0.6 IU/L | TERMINAL_BW (30 mg/kg, 6 h, dose level Low): 211.1 g | APTT (30 mg/kg, 6 h, dose level Low): 21.9 s | Bas (30 mg/kg, 6 h, dose level Low): 0% | Eos (30 mg/kg, 6 h, dose level Low): 1% | Fbg (30 mg/kg, 6 h, dose level Low): 203.8 mg/dL | Hb (30 mg/kg, 6 h, dose level Low): 13.3 g/dL | Ht (30 mg/kg, 6 h, dose level Low): 38.6% | Lym (30 mg/kg, 6 h, dose level Low): 80.6% | MCH (30 mg/kg, 6 h, dose level Low): 20.9 pg | MCV (30 mg/kg, 6 h, dose level Low): 60.9 fL | Mono (30 mg/kg, 6 h, dose level Low): 2.6% | Neu (30 mg/kg, 6 h, dose level Low): 14.8% | PT (30 mg/kg, 6 h, dose level Low): 12.9 s | Plat (30 mg/kg, 6 h, dose level Low): 126.6 x10_4/uL | RBC (30 mg/kg, 6 h, dose level Low): 634.2 x10_4/ul | Ret (30 mg/kg, 6 h, dose level Low): 6.1% | WBC (30 mg/kg, 6 h, dose level Low): 83.2 x10_2/uL | KIDNEY_L (30 mg/kg, 6 h, dose level Low): 1 g | KIDNEY_R (30 mg/kg, 6 h, dose level Low): 1 g | KIDNEY_TOTAL (30 mg/kg, 6 h, dose level Low): 1.9 g | LIVER (30 mg/kg, 6 h, dose level Low): 9.2 g | ALP (30 mg/kg, 6 h, dose level Low): 896 IU/L | ALT (30 mg/kg, 6 h, dose level Low): 34.4 IU/L | AST (30 mg/kg, 6 h, dose level Low): 66 IU/L | BUN (30 mg/kg, 6 h, dose level Low): 9.6 mg/dL | CRE (30 mg/kg, 6 h, dose level Low): 0.4 mg/dL | Ca (30 mg/kg, 6 h, dose level Low): 10.4 mg/dL | Cl (30 mg/kg, 6 h, dose level Low): 103.2 meq/L | DBIL (30 mg/kg, 6 h, dose level Low): 0.078 mg/dL | GLC (30 mg/kg, 6 h, dose level Low): 197.6 mg/dL | IP (30 mg/kg, 6 h, dose level Low): 9.6 mg/dL | K (30 mg/kg, 6 h, dose level Low): 4 meq/L | LDH (30 mg/kg, 6 h, dose level Low): 194 IU/L | Na (30 mg/kg, 6 h, dose level Low): 140.6 meq/L | PL (30 mg/kg, 6 h, dose level Low): 130.6 mg/dL | RALB (30 mg/kg, 6 h, dose level Low): 3.3 g/dL | TBIL (30 mg/kg, 6 h, dose level Low): 0.1 mg/dL | TG (30 mg/kg, 6 h, dose level Low): 61.6 mg/dL | TP (30 mg/kg, 6 h, dose level Low): 5.5 g/dL | gamma-GTP (30 mg/kg, 6 h, dose level Low): 0.8 IU/L | TERMINAL_BW (30 mg/kg, 9 h, dose level Low): 210.1 g | APTT (30 mg/kg, 9 h, dose level Low): 18.7 s | Bas (30 mg/kg, 9 h, dose level Low): 0% | Eos (30 mg/kg, 9 h, dose level Low): 0.8% | Fbg (30 mg/kg, 9 h, dose level Low): 216.4 mg/dL | Hb (30 mg/kg, 9 h, dose level Low): 13.1 g/dL | Ht (30 mg/kg, 9 h, dose level Low): 38.3% | Lym (30 mg/kg, 9 h, dose level Low): 75.2% | MCH (30 mg/kg, 9 h, dose level Low): 21.3 pg | MCV (30 mg/kg, 9 h, dose level Low): 62.2 fL | Mono (30 mg/kg, 9 h, dose level Low): 1.6% | Neu (30 mg/kg, 9 h, dose level Low): 21.4% | PT (30 mg/kg, 9 h, dose level Low): 13 s | Plat (30 mg/kg, 9 h, dose level Low): 113.3 x10_4/uL | RBC (30 mg/kg, 9 h, dose level Low): 616.2 x10_4/ul | Ret (30 mg/kg, 9 h, dose level Low): 6.8% | WBC (30 mg/kg, 9 h, dose level Low): 83.2 x10_2/uL | KIDNEY_L (30 mg/kg, 9 h, dose level Low): 1 g | KIDNEY_R (30 mg/kg, 9 h, dose level Low): 1 g | KIDNEY_TOTAL (30 mg/kg, 9 h, dose level Low): 2 g | LIVER (30 mg/kg, 9 h, dose level Low): 8.6 g | ALP (30 mg/kg, 9 h, dose level Low): 814.2 IU/L | ALT (30 mg/kg, 9 h, dose level Low): 31.4 IU/L | AST (30 mg/kg, 9 h, dose level Low): 62.6 IU/L | BUN (30 mg/kg, 9 h, dose level Low): 11.8 mg/dL | CRE (30 mg/kg, 9 h, dose level Low): 0.4 mg/dL | Ca (30 mg/kg, 9 h, dose level Low): 10.3 mg/dL | Cl (30 mg/kg, 9 h, dose level Low): 102 meq/L | DBIL (30 mg/kg, 9 h, dose level Low): 0.076 mg/dL | GLC (30 mg/kg, 9 h, dose level Low): 190.4 mg/dL | IP (30 mg/kg, 9 h, dose level Low): 9.4 mg/dL | K (30 mg/kg, 9 h, dose level Low): 4.1 meq/L | LDH (30 mg/kg, 9 h, dose level Low): 175 IU/L | Na (30 mg/kg, 9 h, dose level Low): 140.4 meq/L | PL (30 mg/kg, 9 h, dose level Low): 137.2 mg/dL | RALB (30 mg/kg, 9 h, dose level Low): 3.3 g/dL | TBIL (30 mg/kg, 9 h, dose level Low): 0.1 mg/dL | TG (30 mg/kg, 9 h, dose level Low): 59.6 mg/dL | TP (30 mg/kg, 9 h, dose level Low): 5.6 g/dL | gamma-GTP (30 mg/kg, 9 h, dose level Low): 0.8 IU/L | TERMINAL_BW (30 mg/kg, 24 h, dose level Low): 228 g | APTT (30 mg/kg, 24 h, dose level Low): 19.6 s | Bas (30 mg/kg, 24 h, dose level Low): 0% | Eos (30 mg/kg, 24 h, dose level Low): 1% | Fbg (30 mg/kg, 24 h, dose level Low): 205.8 mg/dL | Hb (30 mg/kg, 24 h, dose level Low): 13.4 g/dL | Ht (30 mg/kg, 24 h, dose level Low): 39.6% | Lym (30 mg/kg, 24 h, dose level Low): 78.2% | MCH (30 mg/kg, 24 h, dose level Low): 21.4 pg | MCV (30 mg/kg, 24 h, dose level Low): 63.3 fL | Mono (30 mg/kg, 24 h, dose level Low): 2.4% | Neu (30 mg/kg, 24 h, dose level Low): 18% | PT (30 mg/kg, 24 h, dose level Low): 12.1 s | Plat (30 mg/kg, 24 h, dose level Low): 118 x10_4/uL | RBC (30 mg/kg, 24 h, dose level Low): 626.4 x10_4/ul | Ret (30 mg/kg, 24 h, dose level Low): 5.8% | WBC (30 mg/kg, 24 h, dose level Low): 103.7 x10_2/uL | KIDNEY_L (30 mg/kg, 24 h, dose level Low): 1.1 g | KIDNEY_R (30 mg/kg, 24 h, dose level Low): 1.1 g | KIDNEY_TOTAL (30 mg/kg, 24 h, dose level Low): 2.1 g | LIVER (30 mg/kg, 24 h, dose level Low): 11.2 g | ALP (30 mg/kg, 24 h, dose level Low): 892.6 IU/L | ALT (30 mg/kg, 24 h, dose level Low): 34 IU/L | AST (30 mg/kg, 24 h, dose level Low): 64.6 IU/L | BUN (30 mg/kg, 24 h, dose level Low): 16.2 mg/dL | CRE (30 mg/kg, 24 h, dose level Low): 0.4 mg/dL | Ca (30 mg/kg, 24 h, dose level Low): 10.6 mg/dL | Cl (30 mg/kg, 24 h, dose level Low): 102.4 meq/L | DBIL (30 mg/kg, 24 h, dose level Low): 0.1 mg/dL | GLC (30 mg/kg, 24 h, dose level Low): 214 mg/dL | IP (30 mg/kg, 24 h, dose level Low): 7.7 mg/dL | K (30 mg/kg, 24 h, dose level Low): 4.2 meq/L | LDH (30 mg/kg, 24 h, dose level Low): 198.8 IU/L | Na (30 mg/kg, 24 h, dose level Low): 140.2 meq/L | PL (30 mg/kg, 24 h, dose level Low): 151.2 mg/dL | RALB (30 mg/kg, 24 h, dose level Low): 3.3 g/dL | TBIL (30 mg/kg, 24 h, dose level Low): 0.1 mg/dL | TG (30 mg/kg, 24 h, dose level Low): 99.8 mg/dL | TP (30 mg/kg, 24 h, dose level Low): 5.5 g/dL
